In patent US20190135834A1, “5-SUBSTITUTED AZABENZIMIDAZOLE DERIVATIVE HAVING ???? ACTIVATION ACTION” (Shionogi & Co., Ltd., priority 2016, published 2019):

Biological target: T1, Human AMPK α2ß2γ1 (Homo sapiens, UniProt O43741+P54646)
T1 construct: The full length cDNAs of human AMPK ß2 (NM_005399.3) and human AMPK α2 (NM_006252.3); The full length cDNAs of human AMPK ß2 (NM_005399.3); 6xHis (N); made in house; host or cells: Escherichia coli BL21 CodonPlus (DE3)-RIL
Assay: Test Example 2: evaluation of an activator for AMP-activated protein kinase (AMPK), LabChip mobility shift assay with CaMKK2-phosphorylated enzyme
Assay type: biochemical
Details: for EC150 (compound concentration showing 150% relative to the control (100%)): FL-Peptide 7 substrate, 25° C., 2 hours; for Emax: read-out: Emax (maximum rate of increase in activity within the measurement range)
Description: The full length cDNAs of human AMPK ß2 (NM_005399.3) and human AMPK α2 (NM_006252.3) were inserted into the MCS1 and MCS2 of the pETDuet-1 vector to prepare a human AMPK ß2 and human AMPK α2 (6× His tag at the 5′ terminus) expressing plasmid. The plasmid was cotransfected with an expression plasmid, in which the full length cDNA of human AMPK γ1 (NM_002733.3) had been inserted into pET28b(+), into BL21 CodonPlus (DE3)-RIL to obtain an expression strain. The expression strain was cultured in TB medium, followed by induction with 0.5 mM IPTG, and cultured at 25° C. for 3 hours and then harvested. After ultrasonication, supernatant was collected and applied to Histrap FF column (GE) and RESOURCE Q column (GE) to prepare 12.5 mg of purified sample containing three types of subunit from 1.8 L of broth.
Preparation method of human CaMKK2 used to impart activity to AMPK An expression vector, in which the full length cDNA of human CAMKK ß (NM_172226.1) had been inserted into pGEX-6P-3, was transfected into BL21 Star (DE3). The expression strain was cultured in TB medium, followed by induction with 0.5 mM IPTG, and cultured at 25° C. for 3 hours and then harvested. After ultrasonication, supernatant was collected and applied to GSTrap FF column (GE) to prepare 14 mg of GST-fused CAMKK ß from 720 ml of broth.
Thus, phosphorylation treatment was carried out as pretreatment.
Human AMPK α2ß2γ1 in an amount to give a conversion rate of approximately 10% by reaction for 2 hours, and CaMKK2 in an amount capable of sufficiently imparting activity to AMPK for one hour were mixed in a buffer solution consisting of a 50 mM HEPES-NaOH buffer solution (pH 7.0), 100 mM NaCl, 5 mM magnesium chloride, 0.1% bovine serum albumin, 0.2 mM sodium orthovanadate(V), 1 mM ethylene glycol-bis(2-aminoethyl ether)-N,N,N′,N′-tetraacetic acid (EGTA), 5 mM disodium ß-glycerophosphate, 1 mM dithiothreitol and 0.2 mM ATP, and the resulting liquid was left to stand at 25° C. for 1 to 1.5 hours to sufficiently phosphorylate AMPK.
After that, to the enzyme liquid, which had been subjected to phosphorylation treatment, a compound dissolved in DMSO was added so as to have a 1% DMSO concentration. The resulting liquid was left to stand for 10 minutes.
To the liquid, a substrate solution consisting of a 50 mM HEPES-NaOH buffer solution (pH 7.0), 100 mM NaCl, 10 mM magnesium chloride, 0.1% bovine serum albumin, 0.2 mM sodium orthovanadate(V), 1 mM ethylene glycol-bis(2-aminoethyl ether)-N,N,N′,N′-tetraacetic acid (EGTA), 5 mM disodium ß-glycerophosphate, 2 mM dithiothreitol, 0.4 mM ATP and 3 μM FL-Peptide 7 (manufactured by Caliper Life Sciences, Inc.) was added in equal amount (10 μl in total). The resulting liquid was allowed to react at 25° C. for 2 hours, and 10 μl of 20 mM EDTA was added thereto to stop the reaction.
To detect phosphorylated fluorescent substrates, the reaction mixture was applied to a measuring device, LabChip EZ Reader II manufactured by Caliper Life Science, Inc., for detecting fluorescence by using differences in mobility due to differences in charge. The setting conditions for the device were pressure, −1.5 PSI; upstream voltage, −2250 V; downstream voltage, −400 V; post sample buffer sip time, 40 seconds; final delay, 120 seconds; and peak order, Product First.
A conversion rate was calculated from the peak heights of the obtained substrate and product. The conversion rate when not containing a compound was used as a control, and a concentration dependent curve was made by plotting the rate of increase in activity to the control at each concentration of a compound.

T1 sequence (P54646 whole entry): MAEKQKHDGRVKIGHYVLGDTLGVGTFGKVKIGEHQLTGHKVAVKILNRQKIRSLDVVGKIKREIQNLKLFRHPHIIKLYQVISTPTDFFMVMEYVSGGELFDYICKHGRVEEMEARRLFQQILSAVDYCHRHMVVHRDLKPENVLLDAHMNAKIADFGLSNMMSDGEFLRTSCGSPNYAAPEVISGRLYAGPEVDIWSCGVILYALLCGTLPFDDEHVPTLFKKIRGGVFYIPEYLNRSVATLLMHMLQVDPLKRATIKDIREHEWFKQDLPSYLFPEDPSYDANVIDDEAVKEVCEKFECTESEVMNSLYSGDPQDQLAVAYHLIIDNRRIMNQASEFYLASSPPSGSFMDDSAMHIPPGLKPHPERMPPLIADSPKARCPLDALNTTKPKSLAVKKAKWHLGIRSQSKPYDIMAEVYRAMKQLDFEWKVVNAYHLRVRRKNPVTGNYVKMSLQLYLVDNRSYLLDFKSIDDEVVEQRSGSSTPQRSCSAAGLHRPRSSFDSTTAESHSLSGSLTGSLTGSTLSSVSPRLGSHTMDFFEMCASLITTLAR
T1 sequence (O43741 whole entry): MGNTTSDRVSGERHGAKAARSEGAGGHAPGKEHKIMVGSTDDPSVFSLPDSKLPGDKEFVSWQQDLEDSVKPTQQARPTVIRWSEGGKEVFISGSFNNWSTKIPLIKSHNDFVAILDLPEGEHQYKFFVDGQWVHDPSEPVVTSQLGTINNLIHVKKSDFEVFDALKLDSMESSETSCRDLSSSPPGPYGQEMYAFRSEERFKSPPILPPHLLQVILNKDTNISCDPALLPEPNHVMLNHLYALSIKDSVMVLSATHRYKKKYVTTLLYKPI
T1 sequence (P54619 whole entry partner): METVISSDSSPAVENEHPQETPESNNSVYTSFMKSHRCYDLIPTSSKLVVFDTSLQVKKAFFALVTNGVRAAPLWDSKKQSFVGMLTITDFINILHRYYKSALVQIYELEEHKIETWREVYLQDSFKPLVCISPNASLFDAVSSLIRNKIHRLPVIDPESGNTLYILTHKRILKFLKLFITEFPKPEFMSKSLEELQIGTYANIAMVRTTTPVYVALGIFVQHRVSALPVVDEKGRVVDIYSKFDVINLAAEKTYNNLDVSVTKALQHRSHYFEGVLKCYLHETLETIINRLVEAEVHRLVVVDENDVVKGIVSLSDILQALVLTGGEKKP

| Compound | EC150 (compound concentration showing 150% relative to the control (100%)) [nM] | Emax (relative to control (100%)) [%] | Emax (maximum rate of increase in activity within the measurement range) (relative to control (100%)) [%] |
| --- | --- | --- | --- |
| O[C@@H]1CO[C@H]2[C@@H]1OC[C@H]2Oc1nc2nc(NC3CCc4cc(OCCN5CCCCC5)cc(F)c43)c(Cl)cc2[nH]1 (stereo partly drawn) [Compound I-1-38] | 8 | 392 |  |
| Cn1ccc(-c2cc(F)c3c(c2)CCC3Nc2nc3nc(O[C@@H]4CO[C@H]5[C@@H]4OC[C@H]5O)[nH]c3cc2Cl)cc1=O (stereo partly drawn) [Compound I-1-39] | 2.9 | 384 |  |
| NC(=O)COc1cc(F)c2c(c1)CCC2Nc1nc2nc(O[C@@H]3CO[C@H]4[C@@H]3OC[C@H]4O)[nH]c2cc1Cl (stereo partly drawn) [Compound I-1-42] | 2.1 | 391 |  |
| O=C(COc1cc(F)c2c(c1)CCC2Nc1nc2nc(O[C@@H]3CO[C@H]4[C@@H]3OC[C@H]4O)[nH]c2cc1Cl)NCO (stereo partly drawn) [Compound I-1-43] | 6.5 | 392 |  |
| Cn1cc(-c2cc(F)c3c(c2)CCC3Nc2nc3nc(O[C@@H]4CO[C@H]5[C@@H]4OC[C@H]5O)[nH]c3cc2Cl)cn1 (stereo partly drawn) [Compound I-1-44] | 5.6 | 422 |  |
| CC(=O)Nc1cc(F)c2c(c1)CCC2Nc1nc2nc(O[C@@H]3CO[C@H]4[C@@H]3OC[C@H]4O)[nH]c2cc1Cl (stereo partly drawn) [Compound I-1-45] | 4.7 | 435 |  |
| O[C@@H]1CO[C@H]2[C@@H]1OC[C@H]2Oc1nc2nc(NC3CCc4cc(-c5ccccc5)cnc43)c(Cl)cc2[nH]1 (stereo partly drawn) [Compound I-1-46] | 54 | 381 |  |
| NC(=O)COc1cnc2c(c1)CCC2Nc1nc2nc(O[C@@H]3CO[C@H]4[C@@H]3OC[C@H]4O)[nH]c2cc1Cl (stereo partly drawn) [Compound I-1-47] | 14 | 390 |  |
| O[C@@H]1CO[C@H]2[C@@H]1OC[C@H]2Oc1nc2nc(NC3CCc4cc(C5=CCOCC5)cnc43)c(Cl)cc2[nH]1 (stereo partly drawn) [Compound I-1-48] | 15 | 393 |  |
| O[C@@H]1CO[C@H]2[C@@H]1OC[C@H]2Oc1nc2nc(NC3CCc4cc(NCC(F)(F)F)cnc43)c(Cl)cc2[nH]1 (stereo partly drawn) [Compound I-1-70] | 21 | 384 |  |
| C/C=C/c1cc(F)c2c(c1)CCC2Oc1nc2nc(O[C@@H]3CO[C@H]4[C@@H]3OC[C@H]4O)[nH]c2cc1Cl (stereo partly drawn) [Compound I-1-72] | 13 | 375 |  |
| O[C@@H]1CO[C@H]2[C@@H]1OC[C@H]2Oc1nc2nc(OC3CCc4cc(-c5cscn5)cc(F)c43)c(Cl)cc2[nH]1 (stereo partly drawn) [Compound I-1-74] | 9.9 | 373 |  |
| Cn1nccc1-c1cc(F)c2c(c1)CCC2Oc1nc2nc(O[C@@H]3CO[C@H]4[C@@H]3OC[C@H]4O)[nH]c2cc1Cl (stereo partly drawn) [Compound I-1-76] | 15 | 378 |  |
| Cn1cccc(-c2cc(F)c3c(c2)CCC3Oc2nc3nc(O[C@@H]4CO[C@H]5[C@@H]4OC[C@H]5O)[nH]c3cc2Cl)c1=O (stereo partly drawn) [Compound I-1-77] | 3.3 | 386 |  |
| O=C1CCCN1CCOc1cc(F)c2c(c1)CCC2Nc1nc2nc(O[C@@H]3CO[C@H]4[C@@H]3OC[C@H]4O)[nH]c2cc1Cl (stereo partly drawn) [Compound I-1-79] | 4.2 |  | 385 |
